Test system: Dkk1-LRP5-TCF-Luciferase
Assay: Functional Dkk1-LRP5-TCF-Luciferase Assay in U2OS Cells
Conditions: for fold induction at 2 µM / fold induction at 20 µM / EC50: Homo sapiens, U2OS; for fold induction at 2 µM: read-out: B = TCF ACTIVITY/DMSO CONTROL Fold induction @ 2.0 uM, 2.0 uM compound; for fold induction at 20 µM: read-out: C = TCF ACTIVITY/DMSO CONTROL Fold induction @ 20.0 uM, 20.0 uM compound; for A = MAX FOLD Induction/DMSO CONTROL: maximum fold induction over DMSO control

Work on NC[C@@H]1C[C@H]2C[C@@H]1CN2c1nccc(-c2ccc3ccccc3c2)n1 [1-{(1S,4S,5R)-2-[4-(2-naphthyl)pyrimidin-2-yl]-2-azabicyclo[2.2.1]hept-5-yl}methanamine] yielded a fold induction at 2 µM of 1.1.
With NC[C@H]1C[C@H]2C[C@@H]1CN2c1nccc(-c2ccc3ccccc3c2)n1 [1-{(1S,4S,5S)-2-[4-(2-naphthyl)pyrimidin-2-yl]-2-azabicyclo[2.2.1]hept-5-yl}methanamine] the fold induction at 2 µM was 1.2.
c1ccc2cc(-c3ccnc(N4CC[C@@H](N5CCCCCC5)C4)n3)ccc2c1 [1-{(3R)-1-[4-(2-naphthyl)pyrimidin-2-yl]pyrrolidin-3-yl}azepane] was tested, and the fold induction at 2 µM was 1.25 and the fold induction at 20 µM was 1.3.
For OC1CCCN([C@@H]2CCN(c3nccc(-c4ccc5ccccc5c4)n3)C2)C1 (stereo partly drawn) [1-{(3R)-1-[4-(2-naphthyl)pyrimidin-2-yl]pyrrolidin-3-yl}piperidin-3-ol], the EC50 was 3.64 µM, the fold induction at 2 µM was 2.06 and the fold induction at 20 µM was 1.05. The “A = MAX FOLD Induction/DMSO CONTROL” value was 5.120 fold.
Work on OC1CCN([C@@H]2CCN(c3nccc(-c4ccc5ccccc5c4)n3)C2)CC1 [1-{(3R)-1-[4-(2-naphthyl)pyrimidin-2-yl]pyrrolidin-3-yl}piperidin-4-ol] yielded a fold induction at 2 µM of 1.44 and a fold induction at 20 µM of 0.14.
c1ccc2cc(-c3ccnc(N4CC[C@H](N5CCCCCC5)C4)n3)ccc2c1 [1-{(3S)-1-[4-(2-naphthyl)pyrimidin-2-yl]pyrrolidin-3-yl}azepane] was tested, and the fold induction at 2 µM was 3.97 and the “A = MAX FOLD Induction/DMSO CONTROL” value was 3.220 fold.
OC1CCCN([C@H]2CCN(c3nccc(-c4ccc5ccccc5c4)n3)C2)C1 (stereo partly drawn) [1-{(3S)-1-[4-(2-naphthyl)pyrimidin-2-yl]pyrrolidin-3-yl}piperidin-3-ol] gave an EC50 of 3.55 µM, a fold induction at 2 µM of 2.48 and a fold induction at 20 µM of 0.13. The “A = MAX FOLD Induction/DMSO CONTROL” value was 6.735 fold.
For OC1CCN([C@H]2CCN(c3nccc(-c4ccc5ccccc5c4)n3)C2)CC1 [1-{(3S)-1-[4-(2-naphthyl)pyrimidin-2-yl]pyrrolidin-3-yl}piperidin-4-ol], the fold induction at 2 µM was 1.31 and the fold induction at 20 µM was 0.26.
NC[C@@H]1CCCN(c2nccc(-c3ccc4ccccc4c3)n2)CC1 [1-{(4R)-1-[4-(2-naphthyl)pyrimidin-2-yl]azepan-4-yl}methanamine] was tested, and the EC50 was 1.19 µM, the fold induction at 2 µM was 2.66 and the “A = MAX FOLD Induction/DMSO CONTROL” value was 3.950 fold.
With NC[C@H]1CCCN(c2nccc(-c3ccc4ccccc4c3)n2)CC1 [1-{(4S)-1-[4-(2-naphthyl)pyrimidin-2-yl]azepan-4-yl}methanamine] the EC50 was 1.06 µM, the fold induction at 2 µM was 3.86 and the “A = MAX FOLD Induction/DMSO CONTROL” value was 3.640 fold.
NC[C@H]1CC[C@@H](c2nccc(-c3ccc4ccccc4c3)n2)CC1 [1-{cis-4-[4-(2-naphthyl)pyrimidin-2-yl]cyclohexyl}methanamine] was tested, and the fold induction at 2 µM was 3.4.
For NC[C@H]1CC[C@@H](Oc2nccc(-c3ccc4ccccc4c3)n2)CC1 [1-{cis-4-[(4-naphthalen-2-ylpyrimidin-2-yl)oxy]cyclohexyl}methanamine], the fold induction at 2 µM was 4.2.
O=C(NCCC1CCN(c2nccc(-c3ccc4ccccc4c3)n2)CC1)C(F)(F)F [2,2,2-trifluoro-N-(2-{1-[4-(2-naphthyl)pyrimidin-2-yl]piperidin-4-yl}ethyl)acetamide] was tested, and the fold induction at 2 µM was 1.77 and the fold induction at 20 µM was 1.04.
With O=C(NCC[C@H]1CCCN1c1nccc(-c2ccc3ccccc3c2)n1)C(F)(F)F [2,2,2-trifluoro-N-(2-{(2R)-1-[4-(2-naphthyl)pyrimidin-2-yl]pyrrolidin-2-yl}ethyl)acetamide] the EC50 was 1.19 µM, the fold induction at 2 µM was 0.84 and the fold induction at 20 µM was 2.3. For the same compound, the “A = MAX FOLD Induction/DMSO CONTROL” value was 1.535 fold.
O=C(NCC[C@@H]1CCCN1c1nccc(-c2ccc3ccccc3c2)n1)C(F)(F)F [2,2,2-trifluoro-N-(2-{(2S)-1-[4-(2-naphthyl)pyrimidin-2-yl]pyrrolidin-2-yl}ethyl)acetamide] gave a fold induction at 2 µM of 1.44 and a fold induction at 20 µM of 0.89.
O=C(NCC1CN(c2nccc(-c3ccc4ccccc4c3)n2)C1)C(F)(F)F [2,2,2-trifluoro-N-({1-[4-(2-naphthyl)pyrimidin-2-yl]azetidin-3-yl}methyl)acetamide] showed a fold induction at 2 µM of 1.77.
In the case of O=Cc1ccc2cc(-c3ccnc(N4CCC(CNC(=O)C(F)(F)F)CC4)n3)ccc2c1 [2,2,2-trifluoro-N-({1-[4-(6-formyl-2-naphthyl)pyrimidin-2-yl]piperidin-4-yl}methyl)acetamide], the fold induction at 2 µM is reported as 1.11 and the fold induction at 20 µM is reported as 0.04.
Compound CN(CCN(C)[C@@H]1CCN(c2nccc(-c3ccc4ccccc4c3)n2)C1)C(=O)C(F)(F)F [2,2,2-trifluoro-N-methyl-N-[2-(methyl{(3R)-1-[4-(2-naphthyl)pyrimidin-2-yl]pyrrolidin-3-yl}amino)ethyl]acetamide] has a fold induction at 2 µM of 1.5.
O=C(NC1CCCN(c2nccc(-c3ccc4ccccc4c3)n2)CC1)C(F)(F)F (stereo not drawn) [2,2,2-trifluoro-N-{1-[4-(2-naphthyl)pyrimidin-2-yl]azepan-4-yl}acetamide] was tested, and the fold induction at 2 µM was 1.1 and the fold induction at 20 µM was 1.87.
O=C(N[C@@H]1CCN(c2nccc(-c3ccc4ccccc4c3)n2)C1)C(F)(F)F [2,2,2-trifluoro-N-{(3R)-1-[4-(2-naphthyl)pyrimidin-2-yl]pyrrolidin-3-yl}acetamide] was tested, and the fold induction at 2 µM was 1.97.
For O=C(N[C@H]1CCN(c2nccc(-c3ccc4ccccc4c3)n2)C1)C(F)(F)F [2,2,2-trifluoro-N-{(3S)-1-[4-(2-naphthyl)pyrimidin-2-yl]pyrrolidin-3-yl}acetamide], the EC50 was 25.9 µM, the fold induction at 2 µM was 1.59 and the fold induction at 20 µM was 1.66. The “A = MAX FOLD Induction/DMSO CONTROL” value was 3.620 fold.
CN1CCN(c2nccc(-c3ccc4ccccc4c3)n2)CC1 [2-(4-methylpiperazin-1-yl)-4-(2-naphthyl)pyrimidine] was tested, and the EC50 was 15.5 µM, the fold induction at 2 µM was 1.16 and the fold induction at 20 µM was 1.81. The “A = MAX FOLD Induction/DMSO CONTROL” value was 2.960 fold.
In the case of CC1CCN(c2nccc(-c3ccc4ccccc4c3)n2)CC1 [2-(4-methylpiperidin-1-yl)-4-(2-naphthyl)pyrimidine], the fold induction at 2 µM is reported as 1.51.
For CN(c1nccc(-c2ccc3ccccc3c2)n1)C1CCN(CC(N)=O)CC1 [2-(4-{methyl[4-(2-naphthyl)pyrimidin-2-yl]amino}piperidin-1-yl)acetamide], the fold induction at 2 µM was 2.62, the fold induction at 20 µM was 0.02 and the “A = MAX FOLD Induction/DMSO CONTROL” value was 2.215 fold.
CCN(CCO)[C@@H]1CCN(c2nccc(-c3ccc4ccccc4c3)n2)C1 [2-(ethyl{(3R)-1-[4-(2-naphthyl)pyrimidin-2-yl]pyrrolidin-3-yl}amino)ethanol] was tested, and the fold induction at 2 µM was 1.8, the fold induction at 20 µM was 5.83 and the “A = MAX FOLD Induction/DMSO CONTROL” value was 3.430 fold.
CCN(CCO)[C@H]1CCN(c2nccc(-c3ccc4ccccc4c3)n2)C1 [2-(ethyl{(3S)-1-[4-(2-naphthyl)pyrimidin-2-yl]pyrrolidin-3-yl}amino)ethanol] was tested, and the EC50 was 3.89 µM, the fold induction at 2 µM was 1.42 and the fold induction at 20 µM was 5.58. The “A = MAX FOLD Induction/DMSO CONTROL” value was 6.695 fold.
Work on NCCC1CN(c2nccc(-c3ccc4ccccc4c3)n2)C1 [2-[1-(4-naphthalen-2-ylpyrimidin-2-yl)azetidin-3-yl]ethanamine] yielded a fold induction at 2 µM of 2.4.
c1ccc2cc(-c3ccnc(N4CCC(Cn5ccnc5)C4)n3)ccc2c1 (stereo not drawn) [2-[3-(1H-imidazol-1-ylmethyl)pyrrolidin-1-yl]-4-(2-naphthyl)pyrimidine] was tested, and the fold induction at 2 µM was 1.28 and the fold induction at 20 µM was 0.38.

— US20090054392A1, “NAPHTHYLPYRIMIDINE, NAPHTHYLPYRAZINE AND NAPHTHYLPYRIDAZINE ANALOGS AND THEIR USE AS AGONISTS OF THE WNT-BETA-CATENIN CELLULAR MESSAGING SYSTEM” (Wyeth, priority 2007, published 2009)
